Data as given in ChEMBL document CHEMBL5724914, “Linking interpersonal differences in gut microbiota composition and drug biotransformation activity” (2024).

Key:
[1] = human gut metagenome, 24 h, 2 µM
[2] = (§1) The drug is tested on Z-022 corresponding to mouse gut metagenome with ENA study accession number: PRJEB37062 and ENA sample accession number: ERS12561821 for biotransformation under anaerobic condition. The drug concentrations were measured over 9 timepoints collected between 0 and 24 hours of incubation by liquid-chromatography-coupled mass spectrometry (LC–MS); conditions: 2 µM
[3] = human gut metagenome, 24 h, 2 µM; remark: listed apart in the source
[4] = as §1, with “WLS-086” for “Z-022”, “human” for “mouse”, “ERS12561752” for “ERS12561821”; conditions: 2 µM
[5] = human gut metagenome, 24 h, 2 µM; remark: listed apart in the source
[6] = as §1, with “Z-018” for “Z-022”, “pig” for “mouse”, “ERS12561817” for “ERS12561821”; conditions: 2 µM
[7] = as §1, with “WLS-082” for “Z-022”, “human” for “mouse”, “ERS12561751” for “ERS12561821”; conditions: 2 µM
[8] = human gut metagenome, 24 h, 2 µM; remark: listed apart in the source
[9] = as §1, with “WLS-077” for “Z-022”, “human” for “mouse”, “ERS12561750” for “ERS12561821”; conditions: 2 µM
Also: call rule not given here.

Row | Compound | Bacterial Biotransformation [1] | Bacterial Biotransformation [2] | Bacterial Biotransformation [3] | Bacterial Biotransformation [4] | Bacterial Biotransformation [5] | Bacterial Biotransformation [6] | Bacterial Biotransformation [7] | Bacterial Biotransformation [8] | Bacterial Biotransformation [9]
1 | COc1ccccc1OCC(O)CN1CCN(CC(=O)Nc2c(C)cccc2C)CC1 (stereo unspecified) [RANOLAZINE] | Compound NOT metabolized | Compound metabolized | Compound NOT metabolized | Compound metabolized | Compound NOT metabolized | Compound NOT metabolized | Compound NOT metabolized | Compound NOT metabolized | Compound NOT metabolized
2 | CCCCC1=NC2(CCCC2)C(=O)N1Cc1ccc(-c2ccccc2-c2nnn[nH]2)cc1 [IRBESARTAN] | Compound metabolized | Compound NOT metabolized | Compound metabolized | Compound metabolized | Compound NOT metabolized | Compound metabolized | Compound metabolized | Compound metabolized | Compound metabolized
3 | COc1ccc2[nH]c([S+]([O-])Cc3ncc(C)c(OC)c3C)nc2c1 (stereo unspecified) [OMEPRAZOLE] | Compound metabolized | Compound NOT metabolized | Compound metabolized | Compound metabolized | Compound metabolized | Compound NOT metabolized | Compound metabolized | Compound metabolized | Compound metabolized
4 | NS(=O)(=O)c1cc2c(cc1Cl)N=C(CSCc1ccccc1)NS2(=O)=O [BENZTHIAZIDE] | Compound NOT metabolized | Compound NOT metabolized | Compound NOT metabolized | Compound NOT metabolized | Compound NOT metabolized | Compound NOT metabolized | Compound NOT metabolized | Compound NOT metabolized | Compound NOT metabolized
5 | CCCCCOC(=O)Nc1nc(=O)n([C@@H]2O[C@H](C)[C@@H](O)[C@H]2O)cc1F [CAPECITABINE] | Compound metabolized | Compound NOT metabolized | Compound metabolized | Compound metabolized | Compound NOT metabolized | Compound metabolized | Compound metabolized | Compound NOT metabolized | Compound metabolized
6 | CNCCC(Oc1ccc(C(F)(F)F)cc1)c1ccccc1 (stereo unspecified) [FLUOXETINE] | Compound metabolized | Compound NOT metabolized | Compound NOT metabolized | Compound NOT metabolized | Compound NOT metabolized | Compound NOT metabolized | Compound NOT metabolized | Compound NOT metabolized | Compound NOT metabolized
7 | CC(C)OC(=O)C(C)(C)Oc1ccc(C(=O)c2ccc(Cl)cc2)cc1 [FENOFIBRATE] | Compound metabolized | Compound NOT metabolized | Compound metabolized | Compound metabolized | Compound metabolized | Compound metabolized | Compound NOT metabolized | Compound NOT metabolized | Compound NOT metabolized
8 | CC(C)c1c(C(=O)Nc2ccccc2)c(-c2ccccc2)c(-c2ccc(F)cc2)n1CC[C@@H](O)C[C@@H](O)CC(=O)O [ATORVASTATIN] | Compound metabolized | Compound NOT metabolized | Compound metabolized | Compound metabolized | Compound NOT metabolized | Compound NOT metabolized | Compound metabolized | Compound NOT metabolized | Compound metabolized
9 | CC(C(=O)O)c1ccc2c(c1)Cc1cccnc1O2 (stereo unspecified) [PRANOPROFEN] | Compound metabolized | Compound metabolized | Compound metabolized | Compound metabolized | Compound metabolized | Compound metabolized | Compound metabolized | Compound metabolized | Compound metabolized
10 | O=C(CCCN1CCC(O)(c2ccc(Cl)cc2)CC1)c1ccc(F)cc1 [HALOPERIDOL] | Compound NOT metabolized | Compound NOT metabolized | Compound NOT metabolized | Compound metabolized | Compound NOT metabolized | Compound NOT metabolized | Compound metabolized | Compound NOT metabolized | Compound NOT metabolized
11 | COc1ccc2[nH]c([S+]([O-])Cc3ncc(C)c(OC)c3C)nc2n1 (stereo unspecified) [TENATOPRAZOLE] | Compound NOT metabolized | Compound NOT metabolized | Compound NOT metabolized | Compound metabolized | Compound NOT metabolized | Compound metabolized | Compound metabolized | Compound metabolized | Compound NOT metabolized
12 | Cc1nc2n(c(=O)c1CCN1CCC(c3noc4cc(F)ccc34)CC1)CCCC2 [RISPERIDONE] | Compound metabolized | Compound metabolized | Compound NOT metabolized | Compound metabolized | Compound NOT metabolized | Compound metabolized | Compound metabolized | Compound metabolized | Compound metabolized
13 | CCCC(=O)Nc1ccc(OCC(O)CNC(C)C)c(C(C)=O)c1 (stereo unspecified) [ACEBUTOLOL] | Compound metabolized | Compound metabolized | Compound metabolized | Compound metabolized | Compound NOT metabolized | Compound NOT metabolized | Compound NOT metabolized | Compound NOT metabolized | Compound NOT metabolized
14 | CCOc1ccc(NC(C)=O)cc1 [PHENACETIN] | Compound NOT metabolized | Compound NOT metabolized | Compound NOT metabolized | Compound NOT metabolized | Compound NOT metabolized | Compound NOT metabolized | Compound NOT metabolized | Compound NOT metabolized | Compound NOT metabolized
15 | CCOC(=O)[C@H](CCc1ccccc1)N[C@@H](C)C(=O)N1[C@H](C(=O)O)C[C@@H]2CCC[C@@H]21 | Compound metabolized | Compound metabolized | Compound metabolized | Compound metabolized | Compound NOT metabolized | Compound metabolized | Compound metabolized | Compound NOT metabolized | Compound metabolized
16 | CC[C@H](C)C(=O)O[C@H]1C[C@@H](C)C=C2C=C[C@H](C)[C@H](CC[C@@H]3C[C@@H](O)CC(=O)O3)[C@H]21 [LOVASTATIN] | Compound NOT metabolized | Compound metabolized | Compound NOT metabolized | Compound NOT metabolized | Compound metabolized | Compound metabolized | Compound NOT metabolized | Compound NOT metabolized | Compound NOT metabolized
17 | O=c1n(CCCN2CCN(c3cccc(Cl)c3)CC2)nc2ccccn12 [TRAZODONE] | Compound metabolized | Compound metabolized | Compound NOT metabolized | Compound metabolized | Compound NOT metabolized | Compound NOT metabolized | Compound metabolized | Compound NOT metabolized | Compound NOT metabolized
18 | CC(C)(C)NC[C@H](O)COc1ccccc1C1CCCC1.CC(C)(C)NC[C@H](O)COc1ccccc1C1CCCC1.O=S(=O)(O)O [PENBUTOLOL SULFATE] | Compound metabolized | Compound metabolized | Compound NOT metabolized | Compound metabolized | Compound NOT metabolized | Compound metabolized | Compound metabolized | Compound NOT metabolized | Compound metabolized
19 | CC(=O)OCC(=O)[C@@]12N=C(C)O[C@@H]1C[C@H]1[C@@H]3CCC4=CC(=O)C=C[C@]4(C)[C@H]3[C@@H](O)C[C@@]12C [DEFLAZACORT] | Compound metabolized | Compound metabolized | Compound metabolized | Compound metabolized | Compound NOT metabolized | Compound metabolized | Compound metabolized | Compound metabolized | Compound metabolized
